Experiments:
Format in all cases: in vivo
Details in all cases: treatment dosage 315 g/ha
barnyard grass [1] = test: Test Example 1: weedkilling efficacy, preemergent weed treatment in the submerged state; A: barnyard grass
Outline: (§1)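 Pots of alluvial soil were flooded to a 4 cm depth. Mixed weed seeds were sown and 2.5 leaf-stage rice seedlings transplanted. On sowing day, water-diluted emulsion was applied to the water surface (dose in g/ha). After 3 weeks at 25–30 °C, effects were rated.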

bulrush [2] = test: Test Example 1: weedkilling efficacy, preemergent weed treatment in the submerged state; B: bulrush
Outline: as §1

oval-leafed pondweed [3] = test: Test Example 1: weedkilling efficacy, preemergent weed treatment in the submerged state; C: oval-leafed pondweed
Outline: as §1

transplanted rice = test: Test Example 1: preemergent weed treatment in the submerged state, effect on crop; a: transplanted rice
Outline: as §1

barnyard grass [4] = test: Test Example 2: weedkilling efficacy, growth period weed treatment in the submerged state; A: barnyard grass
Outline: (§2)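 Weeds treated at the 1-2 leaf stage by application of diluted emulsion onto floodwater (4 cm depth, alluvial soil) at specified g/ha. Grown in greenhouse at 25 to 30° C; herbicidal effect rated three weeks after treatment.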

bulrush [5] = test: Test Example 2: weedkilling efficacy, growth period weed treatment in the submerged state; B: bulrush
Outline: as §2

oval-leafed pondweed [6] = test: Test Example 2: weedkilling efficacy, growth period weed treatment in the submerged state; C: oval-leafed pondweed
Outline: as §2

crabgrass [7] = test: Test Example 3: weedkilling efficacy through soil treatment; D: crabgrass
Outline: (§3)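 Crop and weed responses were judged three weeks after a uniform surface spray of the water-diluted emulsion at the given g/ha rate. Seeds sat beneath about 1.5 cm of sterilized diluvial soil, and boxes stood in a greenhouse at 25 to 30° C.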

green foxtail [8] = test: Test Example 3: weedkilling efficacy through soil treatment; E: green foxtail
Outline: as §3

barnyard grass [9] = test: Test Example 3: weedkilling efficacy through soil treatment; F: barnyard grass
Outline: as §3

wild oat [10] = test: Test Example 3: weedkilling efficacy through soil treatment; G: wild oat
Outline: as §3

black-grass [11] = test: Test Example 3: weedkilling efficacy through soil treatment; H: black-grass
Outline: as §3

Italian ryegrass [12] = test: Test Example 3: weedkilling efficacy through soil treatment; I: Italian ryegrass
Outline: as §3

common wind-grass [13] = test: Test Example 3: weedkilling efficacy through soil treatment; J: common wind-grass
Outline: as §3

Indian mallow [14] = test: Test Example 3: weedkilling efficacy through soil treatment; K: Indian mallow
Outline: as §3

redroot pigweed [15] = test: Test Example 3: weedkilling efficacy through soil treatment; L: redroot pigweed
Outline: as §3

chickweed [16] = test: Test Example 3: weedkilling efficacy through soil treatment; N: chickweed
Outline: as §3

birds-eye speedwell [17] = test: Test Example 3: weedkilling efficacy through soil treatment; p: birds-eye speedwell
Outline: as §3

directly sown rice [18] = test: Test Example 3: soil treatment, effect on crop; b: directly sown rice
Outline: as §3

corn [19] = test: Test Example 3: soil treatment, effect on crop; c: corn
Outline: as §3

soybean [20] = test: Test Example 3: soil treatment, effect on crop; d: soybean
Outline: as §3

wheat [21] = test: Test Example 3: soil treatment, effect on crop; e: wheat
Outline: as §3

beet [22] = test: Test Example 3: soil treatment, effect on crop; f: beet
Outline: as §3

rapeseed [23] = test: Test Example 3: soil treatment, effect on crop; g: rapeseed
Outline: as §3

crabgrass [24] = test: Test Example 4: weedkilling efficacy by foliar treatment; D: crabgrass
Outline: (§4)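 Seeds are spot-sown into sterilized diluvial soil and covered with about 1.5 cm of soil. After 14 days' greenhouse growth at 25 to 30° C, plants are sprayed on stems and leaves with diluted emulsion at the stated g/ha rate, then scored at 3 weeks.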

green foxtail [25] = test: Test Example 4: weedkilling efficacy by foliar treatment; E: green foxtail
Outline: as §4

barnyard grass [26] = test: Test Example 4: weedkilling efficacy by foliar treatment; F: barnyard grass
Outline: as §4

wild oat [27] = test: Test Example 4: weedkilling efficacy by foliar treatment; G: wild oat
Outline: as §4

black-grass [28] = test: Test Example 4: weedkilling efficacy by foliar treatment; H: black-grass
Outline: as §4

Italian ryegrass [29] = test: Test Example 4: weedkilling efficacy by foliar treatment; I: Italian ryegrass
Outline: as §4

common wind-grass [30] = test: Test Example 4: weedkilling efficacy by foliar treatment; J: common wind-grass
Outline: as §4

Indian mallow [31] = test: Test Example 4: weedkilling efficacy by foliar treatment; K: Indian mallow
Outline: as §4

redroot pigweed [32] = test: Test Example 4: weedkilling efficacy by foliar treatment; L: redroot pigweed
Outline: as §4

chickweed [33] = test: Test Example 4: weedkilling efficacy by foliar treatment; N: chickweed
Outline: as §4

catchweed = test: Test Example 4: weedkilling efficacy by foliar treatment; O: catchweed
Outline: as §4

birds-eye speedwell [34] = test: Test Example 4: weedkilling efficacy by foliar treatment; p: birds-eye speedwell
Outline: as §4

directly sown rice [35] = test: Test Example 4: foliar treatment, effect on crop; b: directly sown rice
Outline: as §4

corn [36] = test: Test Example 4: foliar treatment, effect on crop; c: corn
Outline: as §4

soybean [37] = test: Test Example 4: foliar treatment, effect on crop; d: soybean
Outline: as §4

wheat [38] = test: Test Example 4: foliar treatment, effect on crop; e: wheat
Outline: as §4

beet [39] = test: Test Example 4: foliar treatment, effect on crop; f: beet
Outline: as §4

rapeseed [40] = test: Test Example 4: foliar treatment, effect on crop; g: rapeseed
Outline: as §4

## CC1=C(c2ccccc2)C(=O)N(C(C)(C)C(=O)Nc2cccc(C(F)F)n2)CO1 [B-2-55]
Barnyard grass [1]
  A (barnyard grass) weedkilling efficacy grade: 5 (weed kill ratio 90% or more, (practically complete withering))
Bulrush [2]
  B (bulrush) weedkilling efficacy grade: 5 (weed kill ratio 90% or more, (practically complete withering))
oval-leafed pondweed [3]
  C (oval-leafed pondweed) weedkilling efficacy grade: 5 (weed kill ratio 90% or more, (practically complete withering))
Transplanted rice
  a (transplanted rice) effect on crop grade: 3 (weed kill ratio 40% or more, less than 70%)
Barnyard grass [4]
  A (barnyard grass) weedkilling efficacy grade: 5 (weed kill ratio 90% or more, (practically complete withering))
Bulrush [5]
  B (bulrush) weedkilling efficacy grade: 5 (weed kill ratio 90% or more, (practically complete withering))
oval-leafed pondweed [6]
  C (oval-leafed pondweed) weedkilling efficacy grade: 5 (weed kill ratio 90% or more, (practically complete withering))
Crabgrass [7]
  D (crabgrass) weedkilling efficacy grade: 5 (weed kill ratio 90% or more, (practically complete withering))
Green foxtail [8]
  E (green foxtail) weedkilling efficacy grade: 5 (weed kill ratio 90% or more, (practically complete withering))
Barnyard grass [9]
  F (barnyard grass) weedkilling efficacy grade: 5 (weed kill ratio 90% or more, (practically complete withering))
Wild oat [10]
  G (wild oat) weedkilling efficacy grade: 4 (weed kill ratio 70% or more, less than 90%)
black-grass [11]
  H (black-grass) weedkilling efficacy grade: 5 (weed kill ratio 90% or more, (practically complete withering))
Italian ryegrass [12]
  I (Italian ryegrass) weedkilling efficacy grade: 5 (weed kill ratio 90% or more, (practically complete withering))
Common wind-grass [13]
  J (common wind-grass) weedkilling efficacy grade: 5 (weed kill ratio 90% or more, (practically complete withering))
Indian mallow [14]
  K (Indian mallow) weedkilling efficacy grade: 1 (weed kill ratio 5% or more, less than 20%)
Redroot pigweed [15]
  L (redroot pigweed) weedkilling efficacy grade: 4 (weed kill ratio 70% or more, less than 90%)
Chickweed [16]
  N (chickweed) weedkilling efficacy grade: 4 (weed kill ratio 70% or more, less than 90%)
birds-eye speedwell [17]
  P (birds-eye speedwell) weedkilling efficacy grade: 5 (weed kill ratio 90% or more, (practically complete withering))
Directly sown rice [18]
  b (directly sown rice) effect on crop grade: 4 (weed kill ratio 70% or more, less than 90%)
Corn [19]
  c (corn) effect on crop grade: 0 (weed kill ratio 5% or less (practically no effect))
Soybean [20]
  d (soybean) effect on crop grade: 3 (weed kill ratio 40% or more, less than 70%)
Wheat [21]
  e (wheat) effect on crop grade: 0 (weed kill ratio 5% or less (practically no effect))
Beet [22]
  f (beet) effect on crop grade: 3 (weed kill ratio 40% or more, less than 70%)
Rapeseed [23]
  g (rapeseed) effect on crop grade: 2 (weed kill ratio 20% or more, less than 40%)
Crabgrass [24]
  D (crabgrass) weedkilling efficacy grade: 5 (weed kill ratio 90% or more, (practically complete withering))
Green foxtail [25]
  E (green foxtail) weedkilling efficacy grade: 5 (weed kill ratio 90% or more, (practically complete withering))
Barnyard grass [26]
  F (barnyard grass) weedkilling efficacy grade: 5 (weed kill ratio 90% or more, (practically complete withering))
Wild oat [27]
  G (wild oat) weedkilling efficacy grade: 3 (weed kill ratio 40% or more, less than 70%)
black-grass [28]
  H (black-grass) weedkilling efficacy grade: 5 (weed kill ratio 90% or more, (practically complete withering))
Italian ryegrass [29]
  I (Italian ryegrass) weedkilling efficacy grade: 4 (weed kill ratio 70% or more, less than 90%)
Common wind-grass [30]
  J (common wind-grass) weedkilling efficacy grade: 5 (weed kill ratio 90% or more, (practically complete withering))
Indian mallow [31]
  K (Indian mallow) weedkilling efficacy grade: 4 (weed kill ratio 70% or more, less than 90%)
Redroot pigweed [32]
  L (redroot pigweed) weedkilling efficacy grade: 4 (weed kill ratio 70% or more, less than 90%)
Chickweed [33]
  N (chickweed) weedkilling efficacy grade: 4 (weed kill ratio 70% or more, less than 90%)
catchweed
  O (catchweed) weedkilling efficacy grade: 5 (weed kill ratio 90% or more, (practically complete withering))
birds-eye speedwell [34]
  P (birds-eye speedwell) weedkilling efficacy grade: 5 (weed kill ratio 90% or more, (practically complete withering))
Directly sown rice [35]
  b (directly sown rice) effect on crop grade: 5 (weed kill ratio 90% or more, (practically complete withering))
Corn [36]
  c (corn) effect on crop grade: 4 (weed kill ratio 70% or more, less than 90%)
Soybean [37]
  d (soybean) effect on crop grade: 4 (weed kill ratio 70% or more, less than 90%)
Wheat [38]
  e (wheat) effect on crop grade: 2 (weed kill ratio 20% or more, less than 40%)
Beet [39]
  f (beet) effect on crop grade: 4 (weed kill ratio 70% or more, less than 90%)
Rapeseed [40]
  g (rapeseed) effect on crop grade: 4 (weed kill ratio 70% or more, less than 90%)
